Laboratory results as given in BindingDB's records for doi:10.1016/j.bioorg.2015.07.005 (Birla Institute of Technology, 2015).

Biological target: Genome polyprotein (Dengue virus type 2 (strain Thailand/NGS-C/1944), UniProt P14340)
Assay: DENV2 Protease Assay
Conditions: pH 8.5
Procedure: To measure the inhibitory activities of the compounds, the DENV2 NS2B-NS3 protease activities were measured in the presence of the compounds using Bz-Nle-Lys-Arg-Arg-AMC as a substrate. The enzyme concentration in the assay was 125 nM, and the substrate concentration was 20 µM in 10 mM Tris-HCl pH 8.5, 20% glycerol, and 1 mM CHAPS. The inhibitor concentrations were 100 µM for the first round and between 3.125 and 400 µM for the compounds 16 and 19 in the second round. Before adding the substrate, the enzyme and the inhibitors were incubated at 37 °C for 15 min. All reactions were performed in 96-well plates with a final volume of 50 µL per each wells using the FLx800 fluorescence microplate reader (excitation = 380 nm; emission = 460 nm).

Genome polyprotein, sequence (P14340 1346-1475 limits assumed): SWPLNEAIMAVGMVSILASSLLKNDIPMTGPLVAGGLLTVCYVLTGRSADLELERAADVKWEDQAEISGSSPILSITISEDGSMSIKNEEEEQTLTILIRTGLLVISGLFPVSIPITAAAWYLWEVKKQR
Genome polyprotein, sequence (P14340 1476-2093 limits assumed): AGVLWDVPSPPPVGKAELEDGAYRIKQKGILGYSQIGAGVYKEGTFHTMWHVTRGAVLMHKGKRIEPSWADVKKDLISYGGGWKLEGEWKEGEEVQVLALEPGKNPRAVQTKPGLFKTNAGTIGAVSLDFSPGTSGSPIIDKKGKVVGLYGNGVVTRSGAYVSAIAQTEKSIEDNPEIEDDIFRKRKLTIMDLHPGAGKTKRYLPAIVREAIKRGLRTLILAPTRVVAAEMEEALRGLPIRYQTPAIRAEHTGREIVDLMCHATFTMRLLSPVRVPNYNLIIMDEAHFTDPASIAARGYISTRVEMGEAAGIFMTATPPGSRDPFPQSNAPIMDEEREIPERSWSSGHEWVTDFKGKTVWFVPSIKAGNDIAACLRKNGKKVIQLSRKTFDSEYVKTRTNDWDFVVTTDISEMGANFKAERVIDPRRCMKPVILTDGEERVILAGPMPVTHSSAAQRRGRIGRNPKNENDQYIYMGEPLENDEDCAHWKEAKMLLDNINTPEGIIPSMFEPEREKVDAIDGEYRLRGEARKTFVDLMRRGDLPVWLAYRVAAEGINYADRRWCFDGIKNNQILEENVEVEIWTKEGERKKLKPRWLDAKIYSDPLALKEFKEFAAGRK

Row | SMILES | IC50 [µM]
1 | O=C1c2ccccc2C(=O)N1c1ccc(S(=O)(=O)Nc2cccc(Cl)c2)cc1 [N-(3-chlorophenyl)-4-(1,3-dioxoisoindolin-2-yl)benzenesulphonamide (11)] | > 100
2 | O=C1c2ccccc2C(=O)N1c1ccc(S(=O)(=O)Nc2ccc(Cl)cc2)cc1 [N-(4-chlorophenyl)-4-(1,3-dioxoisoindolin-2-yl)benzenesulphonamide (12)] | > 100
3 | O=C1c2ccccc2C(=O)N1c1ccc(S(=O)(=O)N2CCCCC2)cc1 [2-(4-(Piperidin-1-ylsulphonyl)phenyl)isoindoline-1,3-dione (5)] | > 100
4 | O=C1c2ccccc2C(=O)N1c1ccc(S(=O)(=O)NCCc2ccccc2)cc1 [4-(1,3-Dioxoisoindolin-2-yl)-N-phenethylbenzenesulphonamide (20)] | > 100
5 | Cc1ccc(NS(=O)(=O)c2ccc(N3C(=O)c4ccccc4C3=O)cc2)cc1 [4-(1,3-Dioxoisoindolin-2-yl)-N-p-tolylbenzenesulphonamide (15)] | > 100
6 | O=C(O)c1ccc(NS(=O)(=O)c2ccc(N3C(=O)c4ccccc4C3=O)cc2)cc1 [4-(4-(1,3-Dioxoisoindolin-2-yl)phenylsulphonamido)benzoic acid (18)] | > 100
7 | CN1CCN(S(=O)(=O)c2ccc(N3C(=O)c4ccccc4C3=O)cc2)CC1 [2-(4-(4-Methylpiperazin-1-ylsulphonyl)phenyl)isoindoline-1,3-dione (6)] | > 100
8 | NS(=O)(=O)c1ccc(N2C(=O)c3ccccc3C2=O)cc1 [4-(1,3-Dioxoisoindolin-2-yl)benzenesulphonamide (1)] | > 100
9 | O=C1c2ccccc2C(=O)N1c1ccc(S(=O)(=O)Nc2ccccc2O)cc1 [4-(1,3-Dioxoisoindolin-2-yl)-N-(2-hydroxyphenyl)benzenesulphonamide (8)] | > 100
10 | COc1cccc(NS(=O)(=O)c2ccc(N3C(=O)c4ccccc4C3=O)cc2)c1 [4-(1,3-Dioxoisoindolin-2-yl)-N-(3-methoxyphenyl)benzenesulphonamide (9)] | > 100
11 | Cc1ccccc1NS(=O)(=O)c1ccc(N2C(=O)c3ccccc3C2=O)cc1 [4-(1,3-Dioxoisoindolin-2-yl)-N-o-tolylbenzenesulphonamide (13)] | > 100
12 | Cc1cccc(NS(=O)(=O)c2ccc(N3C(=O)c4ccccc4C3=O)cc2)c1 [4-(1,3-Dioxoisoindolin-2-yl)-N-m-tolylbenzenesulphonamide (14)] | > 100
13 | O=C1c2ccccc2C(=O)N1c1ccc(S(=O)(=O)Nc2ccc([N+](=O)[O-])cc2)cc1 [4-(1,3-Dioxoisoindolin-2-yl)-N-(4-nitrophenyl)benzenesulphonamide (17)] | > 100

The remaining lines, values ahead:

Row | IC50 [µM] | SMILES
14 | > 100 | COc1ccc(NS(=O)(=O)c2ccc(N3C(=O)c4ccccc4C3=O)cc2)cc1 [4-(1,3-Dioxoisoindolin-2-yl)-N-(4-methoxyphenyl)benzenesulphonamide (10)]
15 | > 100 | O=C1c2ccccc2C(=O)N1c1ccc(S(=O)(=O)Nc2ccccc2)cc1 [4-(1,3-Dioxoisoindolin-2-yl)-N-phenylbenzenesulphonamide (7)]
16 | 48.2 | CCc1ccc(NS(=O)(=O)c2ccc(N3C(=O)c4ccccc4C3=O)cc2)cc1 [4-(1,3-Dioxoisoindolin-2-yl)-N-(4-ethylphenyl)benzenesulphonamide (16)]
17 | > 100 | S=C(Nc1ccc(C(c2c[nH]c3ccccc23)c2c[nH]c3ccccc23)cc1)Nc1cccc(Br)c1
18 | > 100 | CN(C)S(=O)(=O)c1ccc(N2C(=O)c3ccccc3C2=O)cc1 [4-(1,3-Dioxoisoindolin-2-yl)-N,N-dimethyl benzenesulphonamide (2)]
19 | 122 | O=C1c2ccccc2C(=O)N1c1ccc(S(=O)(=O)Nc2cccc3ccccc23)cc1 [4-(1,3-Dioxoisoindolin-2-yl)-N-(naphthalen-1-yl)benzenesulphonamide (19)]
